Series [1] deals with T1, OAT3 (Homo sapiens, UniProt Q8TCC7).
T1 sequence (Q8TCC7 1-542): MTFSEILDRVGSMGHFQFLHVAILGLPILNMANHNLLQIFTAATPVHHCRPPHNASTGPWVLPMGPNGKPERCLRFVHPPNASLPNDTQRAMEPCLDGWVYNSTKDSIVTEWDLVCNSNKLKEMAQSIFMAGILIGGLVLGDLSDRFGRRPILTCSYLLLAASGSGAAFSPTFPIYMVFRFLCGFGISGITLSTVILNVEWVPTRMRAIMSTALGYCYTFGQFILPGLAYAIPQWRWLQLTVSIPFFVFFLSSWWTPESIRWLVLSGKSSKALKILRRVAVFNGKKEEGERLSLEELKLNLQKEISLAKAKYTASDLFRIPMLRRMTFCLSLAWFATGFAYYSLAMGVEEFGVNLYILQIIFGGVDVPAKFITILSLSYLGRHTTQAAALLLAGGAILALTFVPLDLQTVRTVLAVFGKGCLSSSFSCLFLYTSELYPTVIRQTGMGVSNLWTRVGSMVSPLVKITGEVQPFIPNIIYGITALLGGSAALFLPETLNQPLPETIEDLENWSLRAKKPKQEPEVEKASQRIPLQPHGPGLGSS
Nature of the series: Acamprosate intracellular uptake in HEK293-Flp-In OAT3 cells (LC/MS-MS). It counts as cell-based. Conditions: 200 µM acamprosate; 10 min; Lab. 1. Here is the method:
The experiments were done on cells cultured in 24-well plates in Lab. 1. For the time-dependent uptake, the experiment was initiated by replacing the incubation buffer with 200 µL prewarmed 200 µM solution of acamprosate in uptake buffer. The plates were incubated in an orbital plate shaker at 37 °C and 100 rpm for 5, 15, 30, 45, 60, or 90 min and experiments were stopped by washing with 3 × 500 µL ice-cold buffer. […] The plates were incubated in an orbital plate shaker (Incubating microplate shaker from VWR International AB, Stockholm, Sweden) at 37 °C and 100 rpm for 10 min (time point at which substrate uptake was within the linear range) and experiments were stopped by washing with 3 × 500 µL∙well^−1 ice-cold buffer. The cells were then lysed with 200 µL 50 nM warfarin in 60:40 acetonitrile (ACN):water (IS solution) and mixed thoroughly. The samples were moved to 96-well LC/MS-MS plates. The wells from the uptake experiment were rinsed again with 200 µL IS solution and the resulting volumes were added to the corresponding well on the same 96-well plate. […] The plates were covered with aluminum seals and centrifuged at 3500 rpm and 5 °C for 20 min and the amount of acamprosate in the supernatant was quantified by LC/MS-MS.
Acamprosate was quantified in Lab. […] Quantification was done by multiple reaction monitoring of parent and daughter ions. […]

For series [2] the following is noted: no reference given; cited from earlier work.
Series [3] has as its target T1, OAT3. As to the kind of experiment: Drug-drug interaction (DDI) index calculation, OAT3. Conditions: oral and intravenous administration of inhibitor. An excerpt: Input values for Cmax,u or C0,u calculated from clinical studies are listed in Appendix B, Table A1.

The text below walks through data of paper PMC7238232, “Acamprosate Is a Substrate of the Human Organic Anion Transporter (OAT) 1 without OAT3 Inhibitory Properties: Implications for Renal Acamprosate Secretion and Drug–Drug Interactions” (Pharmaceutics, 2020).

`CC(=O)NCCCS(=O)(=O)O` [acamprosate, acetylhomotaurinate]: the “acamprosate uptake in OAT3 expressing cells compared to mock cells” value on OAT3 [1] was “similar”. In addition, in series [2], the logP is given as −3.57 and the pKa was 1.83. In addition, the “DDI index, substrate E3S” value on OAT3 [3] is on record as <<0.02 ^a, b.
